Assay [1] can be described thus: nonselective inhibitors of cellular cAMP signaling, dose response, counter-screen for MC4R biased antagonist project, cell-based, TR-FRET cAMP detection (AID 602305).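 Further: U2OS cells stimulated with forskolin near its EC80 as the cAMP inducer; potency is for inhibition of forskolin-stimulated cAMP signaling.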 It is filed as functional.
For assay [2], the target named is Melanocortin receptor 4 (Homo sapiens, UniProt P32245). In words: MC4R antagonist potency on cAMP, dose response, cell-based, TR-FRET, biased antagonists (AID 602298).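 Further: antagonist potency against agonist-stimulated cAMP production.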 It is filed as functional.
The target of assay [3] is T1, Heat shock factor protein 1 (Mus musculus, UniProt P38532).
T1 sequence (P38532 whole entry): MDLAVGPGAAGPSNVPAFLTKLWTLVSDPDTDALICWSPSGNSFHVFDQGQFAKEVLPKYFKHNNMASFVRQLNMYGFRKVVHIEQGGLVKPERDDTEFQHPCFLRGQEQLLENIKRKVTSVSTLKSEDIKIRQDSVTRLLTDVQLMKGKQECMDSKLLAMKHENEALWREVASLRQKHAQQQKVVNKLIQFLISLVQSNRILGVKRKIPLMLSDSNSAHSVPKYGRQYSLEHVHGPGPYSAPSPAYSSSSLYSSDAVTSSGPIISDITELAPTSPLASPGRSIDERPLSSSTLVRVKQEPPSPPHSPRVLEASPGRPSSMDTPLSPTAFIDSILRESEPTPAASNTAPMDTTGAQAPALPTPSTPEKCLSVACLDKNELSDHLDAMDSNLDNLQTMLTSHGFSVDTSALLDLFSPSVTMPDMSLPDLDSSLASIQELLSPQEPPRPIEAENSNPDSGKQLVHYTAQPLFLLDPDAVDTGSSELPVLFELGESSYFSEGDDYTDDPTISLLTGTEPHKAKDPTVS
In words: inhibition of MG132-induced HSE-luciferase signal, confirmation, cell-based, NIH3T3, luminescence, dose retest (AID 2382).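 Further: NIH3T3 fibroblasts with HSF1-driven luciferase reporter stressed by proteasome inhibitor MG132; luminescence from HSF1-driven luciferase expression after 8 hours of MG132 stress.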 It is filed as functional.

For assay [4], the target named is T2, Estrogen receptor (Homo sapiens, UniProt P03372).
T2 sequence (P03372 whole entry): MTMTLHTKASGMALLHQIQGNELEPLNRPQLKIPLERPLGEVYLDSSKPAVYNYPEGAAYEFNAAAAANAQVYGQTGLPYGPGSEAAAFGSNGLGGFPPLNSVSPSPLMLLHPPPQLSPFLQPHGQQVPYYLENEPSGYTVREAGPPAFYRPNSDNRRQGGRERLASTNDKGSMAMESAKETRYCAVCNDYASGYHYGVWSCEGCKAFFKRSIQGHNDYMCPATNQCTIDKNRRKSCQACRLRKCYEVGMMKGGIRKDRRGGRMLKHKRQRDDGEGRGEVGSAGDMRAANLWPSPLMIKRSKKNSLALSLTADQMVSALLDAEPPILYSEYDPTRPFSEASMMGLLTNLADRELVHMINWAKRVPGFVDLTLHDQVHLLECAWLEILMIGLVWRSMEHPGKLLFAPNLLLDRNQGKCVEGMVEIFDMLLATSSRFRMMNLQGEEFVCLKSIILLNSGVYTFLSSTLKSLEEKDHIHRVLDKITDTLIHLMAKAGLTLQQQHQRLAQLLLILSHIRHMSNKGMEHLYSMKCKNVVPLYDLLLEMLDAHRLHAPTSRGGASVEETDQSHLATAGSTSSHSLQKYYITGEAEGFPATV
In words: potentiators of ERα–SRC-1 coactivator binding, dose response, biochemical, TR-FRET, ERα LBD (AID 737). A general note: TR-FRET usually uses a lanthanide donor and a delayed reading to cut background.

For assay [5], the target named is Protein disulfide-isomerase (Homo sapiens, UniProt P07237). In words: PDI inhibitors, insulin aggregation turbidity, dose response, biochemical, absorbance, cherry-picked samples (AID 602350). It is filed as functional.
In assay [6] the target is Prothrombin (Bos taurus, UniProt P00735). In words: thrombin inhibition, dose response, biochemical, fluorescence polarization, uHTS hits (AID 602369). It is filed as functional.
Assay [7] has as its system Streptococcus. In words: Group A Streptococcus viability loss, dose response, counter-screen for streptokinase expression inhibitor project, luminescence, BacTiterGlo (AID 1915).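 Further: potency for reduction of bacterial viability or growth.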 Type of assay: functional, organism-based. (A counterscreen serves to expose hits that act by an unwanted route or on another target.)
Assay [8] has as its system Streptococcus sp. 'group A'. In words: growth inhibition of control SK(-) GAS strain, dose response, counter-screen for streptokinase expression inhibitor project, luminescence, kanamycin, BacTiterGlo, confirmation (AID 1900). Type of assay: functional, organism-based.
Assay [9] concerns the target 72 kDa type IV collagenase (Homo sapiens, UniProt P08253). In words: Dose Response validation of uHTS RPN11 inhibitor hits using a MMP-2 Fluorescence assay. It is filed as functional.
For assay [10], the target named is 26S proteasome non-ATPase regulatory subunit 14 (Homo sapiens, UniProt O00487). In words: inhibition of proteasome subunit RPN11 – biochemical, fluorescence polarization, uHTS hits, confirmation (AID 602368). Type of assay: functional.
The target of assay [11] is T3, Streptokinase A (Streptococcus pyogenes serotype M1, UniProt P10520).
T3 sequence (P10520 whole entry): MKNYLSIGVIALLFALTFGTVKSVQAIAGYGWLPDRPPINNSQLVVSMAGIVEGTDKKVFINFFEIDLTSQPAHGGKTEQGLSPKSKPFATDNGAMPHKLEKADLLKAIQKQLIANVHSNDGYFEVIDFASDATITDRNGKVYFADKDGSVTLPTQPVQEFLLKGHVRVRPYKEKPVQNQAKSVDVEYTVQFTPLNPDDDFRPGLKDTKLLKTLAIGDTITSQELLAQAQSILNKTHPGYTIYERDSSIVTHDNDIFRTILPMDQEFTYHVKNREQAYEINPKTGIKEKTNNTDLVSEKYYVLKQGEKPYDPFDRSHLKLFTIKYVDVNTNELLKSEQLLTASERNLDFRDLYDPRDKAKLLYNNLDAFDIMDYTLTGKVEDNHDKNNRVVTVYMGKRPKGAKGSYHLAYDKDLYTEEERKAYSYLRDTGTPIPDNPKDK
In words: S. pyogenes streptokinase expression inhibitors, potency, dose response, plasminogen activation absorbance, OD405 (AID 1914).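 Further: secreted streptokinase activity via plasminogen activation per viability signal from cell pellet.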 It is filed as functional, Streptococcus pyogenes M1 GAS.

For assay [12], the target named is Melanin-concentrating hormone receptor 1 (Homo sapiens, UniProt Q99705). In words: Late-stage fluorescence-based counterscreen for antagonists of the G-protein coupled receptor 7 (GPR7): cell-based dose response assay to identify antagonists of the melanin-concentrating hormone receptor 1 (MCHR1) Set 6. Type of assay: functional.
Assay [13] addresses T4, Neuropeptides B/W receptor type 1 (Homo sapiens, UniProt P48145).
T4 sequence (P48145 whole entry): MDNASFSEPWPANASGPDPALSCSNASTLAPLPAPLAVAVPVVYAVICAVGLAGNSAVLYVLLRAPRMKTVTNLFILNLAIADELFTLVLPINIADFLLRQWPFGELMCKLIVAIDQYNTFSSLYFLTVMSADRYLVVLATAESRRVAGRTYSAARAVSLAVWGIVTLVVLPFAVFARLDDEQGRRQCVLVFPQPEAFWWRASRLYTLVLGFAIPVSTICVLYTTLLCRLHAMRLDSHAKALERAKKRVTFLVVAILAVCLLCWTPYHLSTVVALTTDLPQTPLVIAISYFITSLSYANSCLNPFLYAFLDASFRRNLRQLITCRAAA
In words: GPR7 antagonist potency, late-stage follow-up, cell-based, fluorescence, dose response, set 6 (AID 588583). It is filed as functional.

In assay [14] the target is Aurora kinase B (Homo sapiens, UniProt Q96GD4). It is filed as functional.

SMILES strings stand for the structures. Activity calls are given as the source filed them. A value given as a limit tells only on which side of the number the result lay.

Sequence of Melanocortin receptor 4 (P32245 whole entry): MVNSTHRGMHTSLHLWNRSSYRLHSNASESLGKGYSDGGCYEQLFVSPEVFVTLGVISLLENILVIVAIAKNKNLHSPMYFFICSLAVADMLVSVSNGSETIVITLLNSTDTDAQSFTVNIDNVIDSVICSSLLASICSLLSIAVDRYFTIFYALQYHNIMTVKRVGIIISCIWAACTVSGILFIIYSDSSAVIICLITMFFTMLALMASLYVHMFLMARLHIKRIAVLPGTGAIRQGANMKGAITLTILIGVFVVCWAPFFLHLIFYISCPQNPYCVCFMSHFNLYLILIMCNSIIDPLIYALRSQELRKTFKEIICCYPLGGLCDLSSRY
Sequence of Melanin-concentrating hormone receptor 1 (Q99705 whole entry): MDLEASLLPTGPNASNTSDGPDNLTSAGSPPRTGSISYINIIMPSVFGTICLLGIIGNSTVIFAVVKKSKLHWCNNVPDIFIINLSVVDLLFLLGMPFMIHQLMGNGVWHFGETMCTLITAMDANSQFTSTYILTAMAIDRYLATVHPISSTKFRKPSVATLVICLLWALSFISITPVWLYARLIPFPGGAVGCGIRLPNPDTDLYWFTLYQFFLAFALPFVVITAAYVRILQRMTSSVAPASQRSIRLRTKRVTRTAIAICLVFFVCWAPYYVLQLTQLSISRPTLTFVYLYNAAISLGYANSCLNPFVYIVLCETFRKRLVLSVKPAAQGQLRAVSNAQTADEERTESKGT
Sequence of 72 kDa type IV collagenase (P08253 whole entry): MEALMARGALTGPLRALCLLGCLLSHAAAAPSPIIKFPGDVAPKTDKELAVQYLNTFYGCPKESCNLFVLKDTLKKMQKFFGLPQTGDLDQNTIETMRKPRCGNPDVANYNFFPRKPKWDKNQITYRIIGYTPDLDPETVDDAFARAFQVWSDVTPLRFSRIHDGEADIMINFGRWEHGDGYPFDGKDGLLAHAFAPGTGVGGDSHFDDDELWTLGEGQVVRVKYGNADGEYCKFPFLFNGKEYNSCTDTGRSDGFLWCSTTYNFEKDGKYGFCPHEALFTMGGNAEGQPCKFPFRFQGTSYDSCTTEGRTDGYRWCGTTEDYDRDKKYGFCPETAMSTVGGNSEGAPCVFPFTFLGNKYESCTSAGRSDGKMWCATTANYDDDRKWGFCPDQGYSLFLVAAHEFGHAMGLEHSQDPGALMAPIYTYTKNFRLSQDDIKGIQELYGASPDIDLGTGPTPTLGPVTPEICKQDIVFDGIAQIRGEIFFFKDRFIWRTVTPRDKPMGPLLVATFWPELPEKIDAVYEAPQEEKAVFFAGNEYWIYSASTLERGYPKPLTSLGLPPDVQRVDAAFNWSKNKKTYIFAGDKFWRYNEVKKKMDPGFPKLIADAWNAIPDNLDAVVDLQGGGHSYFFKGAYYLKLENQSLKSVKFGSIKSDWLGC
Sequence of Protein disulfide-isomerase (P07237 whole entry): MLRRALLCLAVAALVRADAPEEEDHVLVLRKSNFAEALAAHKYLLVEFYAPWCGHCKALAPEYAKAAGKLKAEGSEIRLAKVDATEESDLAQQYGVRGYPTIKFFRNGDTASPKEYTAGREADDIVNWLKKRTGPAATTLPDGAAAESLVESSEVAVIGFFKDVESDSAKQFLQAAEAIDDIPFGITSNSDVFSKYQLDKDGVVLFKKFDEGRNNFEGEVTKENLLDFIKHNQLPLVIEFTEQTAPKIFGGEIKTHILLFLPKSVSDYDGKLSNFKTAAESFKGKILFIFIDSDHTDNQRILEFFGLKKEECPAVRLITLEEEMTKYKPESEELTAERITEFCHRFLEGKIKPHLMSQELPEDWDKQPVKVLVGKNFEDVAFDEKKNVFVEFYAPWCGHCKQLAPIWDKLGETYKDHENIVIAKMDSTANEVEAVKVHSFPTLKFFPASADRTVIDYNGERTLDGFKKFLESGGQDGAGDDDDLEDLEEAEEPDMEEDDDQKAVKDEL
Sequence of 26S proteasome non-ATPase regulatory subunit 14 (O00487 whole entry): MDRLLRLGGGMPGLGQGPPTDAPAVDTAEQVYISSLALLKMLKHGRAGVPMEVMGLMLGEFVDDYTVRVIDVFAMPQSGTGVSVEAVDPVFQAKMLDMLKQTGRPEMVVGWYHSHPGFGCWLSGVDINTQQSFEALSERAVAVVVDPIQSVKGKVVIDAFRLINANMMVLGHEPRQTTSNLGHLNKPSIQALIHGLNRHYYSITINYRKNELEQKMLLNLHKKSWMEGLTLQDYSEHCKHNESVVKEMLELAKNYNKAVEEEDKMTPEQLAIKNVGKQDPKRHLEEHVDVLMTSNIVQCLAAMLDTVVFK
Sequence of Aurora kinase B (Q96GD4 whole entry): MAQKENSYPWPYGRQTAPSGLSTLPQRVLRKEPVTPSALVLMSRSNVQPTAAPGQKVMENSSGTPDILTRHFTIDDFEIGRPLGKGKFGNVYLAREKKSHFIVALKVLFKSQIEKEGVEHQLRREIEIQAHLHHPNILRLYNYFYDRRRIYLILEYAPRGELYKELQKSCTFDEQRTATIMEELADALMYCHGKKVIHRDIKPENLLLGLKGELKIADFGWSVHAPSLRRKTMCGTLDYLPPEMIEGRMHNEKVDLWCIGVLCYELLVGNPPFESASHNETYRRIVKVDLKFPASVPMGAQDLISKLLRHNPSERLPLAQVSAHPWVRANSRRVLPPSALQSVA

Usually IC50 stands for the concentration at which inhibition is half-maximal. Turning to `CCOC(=O)c1cnc2ccc(OCC)cc2c1NCc1ccccc1`, the IC50 in [1] and in [2] was > 64.6 µM (inactive) throughout.
One may read the EC50 as the concentration at which the effect is half-maximal. By AC50 is commonly meant the concentration at which the activity in the assay is half-maximal. For `C[C@]12CC[C@@H]3c4ccc(O[C@@H]5O[C@H](C(=O)O)[C@@H](O)[C@H](O)[C@H]5O)cc4CC[C@H]3[C@@H]1C[C@@H](O)[C@@H]2O`, the EC50 in [3] was > 195 µM (not active); in assay [4], 9.16 µM (active). In assay [5], the AC50 was 15.7 µM (active).
For the compound `O=C1NC(=S)N(C2CCCCC2)C(=O)/C1=C/NNC(=O)c1ccccc1`, the IC50 in assay [6] was 36.1 µM (active); in [9], > 100 µM (inactive); in assay [10], 40.3 µM (active). The EC50 in assay [7] is 8.22 µM (active); in assay [8] it was 0.519 µM (active); in assay [11] it was > 150 µM (not active).
As to `N#CC(c1ccccn1)c1c(Br)cnn(Cc2cccc3ccccc23)c1=O` (centres undefined), the IC50 in assay [12] and in assay [13] was 0.8 µM (active) in each case.
One may read the Ki as the dissociation constant of the complex between target and ligand, obtained from inhibition or displacement. In the case of `Cc1cccc(Nc2nccc(Nc3ccccc3C(=O)O)n2)c1`, the Ki in assay [14] was 0.00126 µM (active).

Values taken from ChEMBL document CHEMBL1201862, “PubChem BioAssay data set” (2004).
